Values quoted from earlier work, collected in US20080063637A1, “Regulation of oncogenesis by Akt-specific isoforms” (The Trustees of Tufts College, priority 2006, published 2008).

Key:
[1] = tested on: corresponding Akt isoforms (phosphorylation by PDK1); conditions: Barnett et al. 2005
[2] = tested on: LNCap prostate cancer cells; conditions: Barnett et al. 2005

## O=c1[nH]c2ccccc2n1C1CCN(Cc2ccc(-c3nc4cc5nc[nH]c5cc4nc3-c3ccccc3)cc2)CC1 [Akt-I-1,2]
[1]
  phosphorylation and activation of the corresponding Akt isoforms by PDK1: blocked
[2]
  TRAIL-induced apoptosis: promote
